Assay results from paper PMC5094908 (Journal of applied toxicology : JAT, 2016).
“Also recorded” adds a separate entry of the source. Counter-ions that a name gives are not always drawn. Like-named read-outs stand apart in the source and are kept apart here.

Experiments:
[1] = system: LUHMES and dLUHMES cells; conditions: 6 h
[2] = system: NSC and dNSC cells; conditions: 24 h exposure, [ATP], 0.78 to 100 µM
[3] = system: LUHMES and dLUHMES cells
[4] = system: Caspase 3/7 activity in SH-SY5Y and dSH-SY5Y cells; experiment: Caspase-Glo 3/7 luminescence assay, 24 h; type: cell-based
[5] = system: Caspase 3/7 activity in NSC and dNSC cells; type: cell-based, human; conditions: 24 h, threshold […] above control
[6] = system: Caspase 3/7 activity in LUHMES and dLUHMES cells; experiment: Caspase-Glo 3/7 luminescence assay, 24 h; type: cell-based, human
[7] = system: SH-SY5Y and dSH-SY5Y cells
[8] = system: HEK293, SH-SY5Y, SK-N-SH, or N2a; conditions: cited from earlier work
[9] = system: SH-SY5Y and dSH-SY5Y cells; experiment: qPCR of apoptosis-pathway genes after 6 h toxicant treatment; type: cell-based, human; conditions: for BAG3 expression: both SH-SY5Y and dSH-SY5Y
[10] = system: SH-SY5Y, LUHMES, NSC, dSH-SY5Y, dLUHMES, dNSC
[11] = 24 h exposure, 0.78 to 100 µM, vs SH-SY5Y/dSH-SY5Y and NSC/dNSC
[12] = 24 h exposure, [ATP], 0.78 to 100 µM
[13] = dLUHMES, 24 h, threshold […] above control
[14] = SH-SY5Y and dSH-SY5Y (either cell type), MAP 12.5 µM, DTCM 10 µM, MALG 1.56 µM, MHG 1.56 µM, RSR 10 µM
[15] = MAP 12.5 µM, DTCM 10 µM, MALG 1.56 µM, MHG 1.56 µM, RSR 10 µM
[16] = SH-SY5Y and dSH-SY5Y (either cell type), MAP 12.5 µM, MALG 1.56 µM, MHG 1.56 µM, RSR 10 µM

NCCc1cc(O)c(O)cc1O [6HD, 6-hydroxydopamine]
expression of a series of apoptosis-related genes ([1]; LUHMES, 6HD 1 µM): not observed
expression of BCL2A1 and IL10 ([1]; dLUHMES, 6HD 1 µM): increased expression
expression of a series of apoptosis-related genes ([1]; dLUHMES, 6HD 1 µM): increased expression
relative cytotoxic sensitivity of NSC versus dNSC [2]: NSC more sensitive than dNSC
cytotoxic sensitivity ([ATP] IC50) of LUHMES and/or dLUHMES relative to the other cell lines [3, 11]: more sensitive than the other cell lines
relative cytotoxic sensitivity of LUHMES versus dLUHMES cells [3, 12]: dLUHMES cells were markedly more sensitive than LUHMES cells
peak Caspase 3/7 activities, ranking among compounds [4]: highest activities
increase of Caspase 3/7 activity in dNSC [5]: but not dNSC

Nc1ccn([C@@H]2O[C@H](CO)[C@@H](O)[C@@H]2O)c(=O)n1 [ARAC, Cytosine arabinoside]
relative cytotoxic sensitivity of LUHMES versus dLUHMES cells [3]: LUHMES cells were more sensitive than dLUHMES cells
cytotoxic sensitivity ([ATP] IC50) of LUHMES and/or dLUHMES relative to the other cell lines [3, 11]: more sensitive than the other cell lines
peak Caspase 3/7 activities, ranking among compounds [4]: highest activities
increase of Caspase 3/7 activity in dLUHMES [6, 13]: but not dLUHMES

O=C1C2CC=CCC2C(=O)N1SC(Cl)(Cl)Cl (stereo not shown) [CAP, Captan]
cytotoxic sensitivity of dSH-SY5Y cells relative to SH-SY5Y cells [7, 12]: slightly more sensitive
In vitro neural selectivity: neural-derived cell lines 10-fold more sensitive (10-fold lower IC50) than the median of the other 9 cell lines [8]: SH-SY5Y ([Huang et al., 2008], [Xia et al., 2008])
cytotoxic sensitivity ([ATP] IC50) of LUHMES and/or dLUHMES relative to the other cell lines [3, 11]: more sensitive than the other cell lines
relative cytotoxic sensitivity of LUHMES versus dLUHMES cells [3, 12]: dLUHMES cells were markedly more sensitive than LUHMES cells

COc1cc2c(c(OC)c1OC)-c1ccc(OC)c(=O)cc1[C@@H](NC(C)=O)CC2 [CLCH, Colchicine]
In vitro neural selectivity: neural-derived cell lines 10-fold more sensitive (10-fold lower IC50) than the median of the other 9 cell lines [8]: HEK293, SH-SY5Y, SK-N- SH, N2a ([Huang et al., 2008], [Xia et al., 2008])
cytotoxic sensitivity ([ATP] IC50) of LUHMES and/or dLUHMES relative to the other cell lines [3]: more sensitive than the other cell lines

O=C(O)CCCc1ccc(N(CCCl)CCCl)cc1 [CLM, Chlorambucil]
In vitro neural selectivity: neural-derived cell lines 10-fold more sensitive (10-fold lower IC50) than the median of the other 9 cell lines [8]: selective toxicity to SH-SY5Y cells; also recorded: SH-SY5Y, ([Huang et al., 2008], [Xia et al., 2008])
relative cytotoxic sensitivity of LUHMES versus dLUHMES cells [3]: LUHMES cells were more sensitive than dLUHMES cells
cytotoxic sensitivity ([ATP] IC50) of LUHMES and/or dLUHMES relative to the other cell lines [3, 11]: more sensitive than the other cell lines
peak Caspase 3/7 activities, ranking among compounds [4]: highest activities
increase of Caspase 3/7 activity in dLUHMES [6, 13]: but not dLUHMES

COc1cccc2c1C(=O)c1c(O)c3c(c(O)c1C2=O)C[C@@](O)(C(C)=O)C[C@@H]3O[C@H]1C[C@H](N)[C@H](O)[C@H](C)O1 [DAUN, Daunorubicin]
In vitro neural selectivity: neural-derived cell lines 10-fold more sensitive (10-fold lower IC50) than the median of the other 9 cell lines [8]: HEK293, SH-SY5Y, SK-N- SH, N2a ([Huang et al., 2008], [Xia et al., 2008])
peak Caspase 3/7 activities, ranking among compounds [4]: highest activities

C[C@H]1O[C@@H](O[C@H]2[C@@H](O)C[C@H](O[C@H]3[C@@H](O)C[C@H](O[C@H]4CC[C@@]5(C)[C@H](CC[C@@H]6[C@@H]5C[C@@H](O)[C@]5(C)[C@@H](C7=CC(=O)OC7)CC[C@]65O)C4)O[C@@H]3C)O[C@@H]2C)C[C@H](O)[C@@H]1O [DGX, Digoxin]
cytotoxic sensitivity ([ATP] IC50) of LUHMES and/or dLUHMES relative to the other cell lines [3]: more sensitive than the other cell lines

COc1cccc2c1C(=O)c1c(O)c3c(c(O)c1C2=O)C[C@@](O)(C(=O)CO)C[C@@H]3O[C@H]1C[C@H](N)[C@H](O)[C@H](C)O1 [DOX, Doxorubicin]
In vitro neural selectivity: neural-derived cell lines 10-fold more sensitive (10-fold lower IC50) than the median of the other 9 cell lines [8]: HEK293, SH-SY5Y, SK-N- SH ([Huang et al., 2008], [Xia et al., 2008])
peak Caspase 3/7 activities, ranking among compounds [4]: highest activities

N#CSCSC#N [DTCM, Dithiocyanatomethan]
cytotoxic sensitivity of dSH-SY5Y cells relative to SH-SY5Y cells [7, 12]: slightly more sensitive
In vitro neural selectivity: neural-derived cell lines 10-fold more sensitive (10-fold lower IC50) than the median of the other 9 cell lines [8]: SH-SY5Y ([Huang et al., 2008], [Xia et al., 2008])
BIRC5 gene expression [9, 14]: down-regulation
BIRC3 gene expression ([9]; SH-SY5Y, DTCM 10 µM): down-regulation
FAS mRNA ([9]; SHSY5Y, DTCM 10 µM): down-regulated
BAG3 expression [9, 15]: increased expression
BIRC3 gene expression ([9]; dSH-SY5Y, DTCM 10 µM): did not respond detectably
FASL mRNA ([9]; dSH-SY5Y, DTCM 10 µM): unchanged
cytotoxic sensitivity ([ATP] IC50) of LUHMES and/or dLUHMES relative to the other cell lines [3, 11]: more sensitive than the other cell lines
relative cytotoxic sensitivity of LUHMES versus dLUHMES cells [3, 12]: dLUHMES cells were markedly more sensitive than LUHMES cells
increase of Caspase 3/7 activity in dLUHMES [6, 13]: but not dLUHMES

O=c1c(-c2ccc(O)cc2)coc2cc(O)cc(O)c12 [GEN, Genistein]
increase of Caspase 3/7 activity in dLUHMES [6, 13]: but not dLUHMES

CN(C)c1ccc(C(=C2C=CC(=[N+](C)C)C=C2)c2ccccc2)cc1.CN(C)c1ccc(C(=C2C=CC(=[N+](C)C)C=C2)c2ccccc2)cc1.O=C(O)C(=O)O.O=C([O-])C(=O)O.O=C([O-])C(=O)O [MALG, Malachite green oxalate]
BIRC5 gene expression [9, 14]: down-regulation
BIRC3 gene expression [9, 16]: down-regulation
BAG3 expression [9, 15]: increased expression
cytotoxic sensitivity of LUHMES, dLUHMES, NSC and dNSC compared with each other [10]: comparable sensitivity
peak Caspase 3/7 activities, ranking among compounds [4]: highest activities

[CH3][Hg+] [MHG, Methyl mercury (II)]
BIRC5 gene expression [9, 14]: down-regulation
BIRC3 gene expression [9, 16]: down-regulation
BAG3 expression [9, 15]: increased expression

Cc1ccc2c(c1[N+](=O)[O-])C(=O)c1ccccc1C2=O [MNA, 2-Methyl-1-nitroanthraquinone]
In vitro neural selectivity: neural-derived cell lines 10-fold more sensitive (10-fold lower IC50) than the median of the other 9 cell lines ([8]; qHTS cytotoxicity, ref Huang et al., 2008, Xia et al., 2008): HEK293 ([Huang et al., 2008], [Xia et al., 2008])
cytotoxic sensitivity ([ATP] IC50) of LUHMES and/or dLUHMES relative to the other cell lines [3]: more sensitive than the other cell lines
increase of Caspase 3/7 activity in dLUHMES [6, 13]: but not dLUHMES

Cc1c(O)cccc1C(=O)N[C@@H](CSc1ccccc1)[C@H](O)CN1C[C@H]2CCCC[C@H]2C[C@H]1C(=O)NC(C)(C)C [NLF, Nelfinavir]
In vitro neural selectivity: neural-derived cell lines 10-fold more sensitive (10-fold lower IC50) than the median of the other 9 cell lines [8]: SH-SY5Y ([Huang et al., 2008], [Xia et al., 2008])
cytotoxic sensitivity ([ATP] IC50) of LUHMES and/or dLUHMES relative to the other cell lines [3]: more sensitive than the other cell lines

CCCCCCCCn1sccc1=O [OTZ, 2-octyl-4-isothiazolin-3-one]
In vitro neural selectivity: neural-derived cell lines 10-fold more sensitive (10-fold lower IC50) than the median of the other 9 cell lines [8]: SH-SY5Y ([Huang et al., 2008], [Xia et al., 2008])
relative cytotoxic sensitivity of NSC versus dNSC [2]: NSC more sensitive than dNSC
cytotoxic sensitivity ([ATP] IC50) of LUHMES and/or dLUHMES relative to the other cell lines [3]: more sensitive than the other cell lines

C=C(C)[C@H]1Cc2c(ccc3c2O[C@@H]2COc4cc(OC)c(OC)cc4[C@@H]2C3=O)O1 [ROTE, Rotenone]
cytotoxic sensitivity of dSH-SY5Y cells relative to SH-SY5Y cells [7]: more sensitive
relative cytotoxic sensitivity of LUHMES versus dLUHMES cells [3]: LUHMES cells were more sensitive than dLUHMES cells
cytotoxic sensitivity ([ATP] IC50) of LUHMES and/or dLUHMES relative to the other cell lines [3, 11]: more sensitive than the other cell lines

c1cc(OCC2CO2)cc(OCC2CO2)c1 (stereo not shown) [RSR, Resorcinol diglycidyl ether]
cytotoxicity seen in samples treated for qPCR ([1]; LUHMES, 1.56 µM RSR, samples lost): excessive cytotoxicity
In vitro neural selectivity: neural-derived cell lines 10-fold more sensitive (10-fold lower IC50) than the median of the other 9 cell lines [8]: SH-SY5Y ([Huang et al., 2008], [Xia et al., 2008])
BIRC5 gene expression [9, 14]: did not respond detectably
BIRC3 gene expression [9, 16]: did not respond detectably
BAG3 expression [9, 15]: weakly
relative cytotoxic sensitivity of NSC versus dNSC [2]: the converse was true
cytotoxic sensitivity ([ATP] IC50) of LUHMES and/or dLUHMES relative to the other cell lines [3, 11]: more sensitive than the other cell lines
peak Caspase 3/7 activities, ranking among compounds [4]: highest activities

[CH3][Sn]([CH3])([CH3])[Cl] [TMT, Trimethyltin chloride]
cytotoxic sensitivity ([ATP] IC50) of LUHMES and/or dLUHMES relative to the other cell lines [3, 11]: more sensitive than the other cell lines
relative cytotoxic sensitivity of LUHMES versus dLUHMES cells [3, 12]: dLUHMES cells were markedly more sensitive than LUHMES cells

CC[C@]1(O)C[C@H]2CN(CCc3c([nH]c4ccccc34)[C@@](C(=O)OC)(c3cc4c(cc3OC)N(C=O)[C@H]3[C@@](O)(C(=O)OC)[C@H](OC(C)=O)[C@]5(CC)C=CCN6CC[C@]43[C@@H]65)C2)C1 [VIN, Vincristine sulfate]
cytotoxic sensitivity ([ATP] IC50) of LUHMES and/or dLUHMES relative to the other cell lines [3]: more sensitive than the other cell lines

Aflatoxin B1
cytotoxic sensitivity ([ATP] IC50) of LUHMES and/or dLUHMES relative to the other cell lines [3]: more sensitive than the other cell lines
relative cytotoxic sensitivity of LUHMES versus dLUHMES cells [3]: LUHMES cells were more sensitive than dLUHMES cells
increase of Caspase 3/7 activity in dLUHMES [6]: but not dLUHMES

Sodium dichromate [CR2]
In vitro neural selectivity: neural-derived cell lines 10-fold more sensitive (10-fold lower IC50) than the median of the other 9 cell lines [8]: SH-SY5Y ([Huang et al., 2008], [Xia et al., 2008])

Tunicamycin [TUNC]
cytotoxic sensitivity ([ATP] IC50) of LUHMES and/or dLUHMES relative to the other cell lines [3, 11]: more sensitive than the other cell lines

Ziram
In vitro neural selectivity: neural-derived cell lines 10-fold more sensitive (10-fold lower IC50) than the median of the other 9 cell lines [8]: SH-SY5Y ([Huang et al., 2008], [Xia et al., 2008])
